Test results published in patent US9096646B2, “CXCR4 receptor compounds” (priority 2008, dated 2015).
Where “and” joins values, the source holds several entries; their conditions need not be identical. Equal entries are not always repeated. Peptide text beside a SMILES is read from it. * marks the point of attachment. Palmitoyl = CCCCCCCCCCCCCCCC(=O)*

Experiments:
CXCR4 [1] = target: T1, CXCR4 (Homo sapiens, UniProt P61073); assay: Chemotaxis assay using SUP B-15 cells; type: cell-based; parameters: A similar procedure was followed for chemotaxis using SUP B-15 cells; endogenous in cells; host or cells: SUP B-15 cells; details: for AUC (% of vehicle) / Max (% of vehicle) / Peak Test Comp.: Table 19, i2 loop, SUPB-15 cells, conc 1.0 uM; for activity at 1 µM: SUP-B15, Table 18, i1 loop, SUP B-15 cells, drug conc 1.0 uM
T1 sequence (P61073 whole entry): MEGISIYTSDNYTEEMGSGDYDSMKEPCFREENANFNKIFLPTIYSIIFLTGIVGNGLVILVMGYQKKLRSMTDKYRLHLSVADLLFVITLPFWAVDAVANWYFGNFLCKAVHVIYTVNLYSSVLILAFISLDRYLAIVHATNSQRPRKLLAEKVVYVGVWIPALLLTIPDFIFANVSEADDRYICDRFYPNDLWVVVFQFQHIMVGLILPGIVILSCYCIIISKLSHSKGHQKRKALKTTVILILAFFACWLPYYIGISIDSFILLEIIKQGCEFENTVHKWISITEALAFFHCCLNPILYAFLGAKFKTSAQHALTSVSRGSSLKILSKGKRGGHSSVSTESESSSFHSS
From the text: Chemotaxis assays were utilized to determine the effect of compound on the directed migration of cells in response to chemokine. Cells that express a receptor of interest were placed in the upper chamber of a Transwell chemotaxis plate (Corning) and allowed to migrate through a polycarbonate membrane to a lower chamber containing the appropriate receptor-specific ligand. To test for antagonist or potentiating activity, cells were mixed with the desired concentration of compound prior to addition to the upper chamber. Conversely, agonist activity was determined by adding compound in the bottom chamber only without endogenous chemokine. The effect of compound is quantified by several parameters, including the extent of maximum response, the shift of agonist dose-response curves, and the area under the curve.
To measure the CXCR4-dependent migration of cells, the appropriate concentration of CXCL12 (SDF1a) or test compound was diluted in phenol red-free RMPI-1640/20 mM HEPES/0.5% BSA buffer and placed in the bottom chamber of a transwell apparatus. CCRF-CEM cells, a human T-cell ALL line that endogenously expresses CXCR4, were washed twice in buffer and resuspended at 133,000 cells/ml. A 75 μl sample of this suspension is mixed with the test compound of interest and placed in the upper chamber of a 5-micron transwell apparatus.
To initiate cell migration, the assembled transwell plate was placed in a 37° C., […] incubator for a specified time interval, typically between 30 and 120 minutes. After incubation, the unit was disassembled and the lower chamber placed at −80° C. overnight to facilitate lysis of cells. To quantify migrated cells, plates were thawed at 37° C. in a humidified chamber, and then a sample volume was removed from each well and mixed with an equal volume of CyQuant (Invitrogen) working solution in opaque plates. The fluorescence intensity of each well represents the DNA content and is directly proportional to cell number. Each sample was typically run in duplicate or triplicate and each plate included two separate negative controls. The plate background control, which included no cells in the upper chamber, was subtracted from all values. The negative control had no agonist added in the lower chamber, and served to establish the baseline for random migration. A similar procedure was followed for chemotaxis using SUP B-15 cells.

CXCR4 [2] = target: T1, CXCR4; assay: Chemotaxis assay, effect on SDF1-a (CXCL12) induced migration of CCRF-CEM cells; type: cell-based; parameters: a human T-cell ALL line that endogenously expresses CXCR4; endogenous in cells; host or cells: CCRF-CEM (human T-cell ALL line); details: CCRF-CEM, Table 18, i1 loop, CEM cells, drug conc 1.0 uM
Procedure: To initiate cell migration, the assembled transwell plate was placed in a 37° C., 0.5% CO2 incubator for a specified time interval, typically between 30 and 120 minutes. After incubation, the unit was disassembled and the lower chamber placed at −80° C. overnight to facilitate lysis of cells. To quantify migrated cells, plates were thawed at 37° C. in a humidified chamber, and then a sample volume was removed from each well and mixed with an equal volume of CyQuant (Invitrogen) working solution in opaque plates. The fluorescence intensity of each well represents the DNA content and is directly proportional to cell number. […] The plate background control, which included no cells in the upper chamber, was subtracted from all values.

Compound | AUC (% of vehicle) (CXCR4 [1]) | Max (% of vehicle) (CXCR4 [1]) | Peak Test Comp. (CXCR4 [1]) | activity at 1 µM (CXCR4 [1]; read-out: AUC (% of)) | activity at 1 µM (CXCR4 [1]; read-out: Max (% of)) | activity at 1 µM (CXCR4 [2]; read-out: AUC (% of)) | activity at 1 µM (CXCR4 [2]; read-out: Max (% of))
83 (Palmitoyl-HATNSQRPRKLLAEKV-NH2; not fully specified) [Compound 83] | 126.36 % of vehicle | 110.06 % of vehicle | 5 nM | – | – | – | –
78 (Palmitoyl-VHATNSQRPRKLLA-NH2; not fully specified) [Compound 78] | 71.85 % of vehicle | 72.31 % of vehicle | 5 nM | – | – | – | –
CCCCCCCCCCCCCCCC(=O)N[C@@H](CCCCN)C(=O)N[C@@H](CCCCN)C(=O)N[C@@H](CC(C)C)C(=O)N[C@@H](CCCNC(=N)N)C(=O)N[C@@H](CO)C(=O)N[C@@H](CCSC)C(=O)N[C@H](C(=O)N[C@@H](CC(=O)O)C(=O)N[C@@H](CCCCN)C(=O)N[C@@H](Cc1ccc(O)cc1)C(=O)N[C@@H](CCCNC(=N)N)C(N)=O)[C@@H](C)O [Compound 45] (Palmitoyl-KKLRSMTDKYR-NH2) | – | – | – | 178% | 194% | – | –
79 (Palmitoyl-HATNSQRPRKL-NH2; not fully specified) [Compound 79] | 109.36 % of vehicle | 109.68 % of vehicle | 5 nM | – | – | – | –
CCCCCCCCCCCCCCCC(=O)N[C@@H](CCCCN)C(=O)N[C@@H](CCCCN)C(=O)N[C@@H](CC(C)C)C(=O)N[C@@H](CCCNC(=N)N)C(=O)N[C@@H](CO)C(=O)N[C@@H](CCSC)C(=O)N[C@H](C(=O)N[C@@H](CC(=O)O)C(=O)N[C@@H](CCCCN)C(=O)N[C@@H](Cc1ccc(O)cc1)C(=O)N[C@@H](CCCNC(=N)N)C(=O)N[C@@H](CC(C)C)C(N)=O)[C@@H](C)O [Compound 44, Pal-KKLRSMTDKYRL-amide] (Palmitoyl-KKLRSMTDKYRL-NH2) | – | – | – | 25.9% | 31.5% | – | –
CCCCCCCCCCCCCCCC(=O)N[C@H](C(=O)N[C@@H](CCSC)C(=O)NCC(=O)N[C@@H](Cc1ccc(O)cc1)C(=O)N[C@@H](CCC(N)=O)C(=O)N[C@@H](CCCCN)C(=O)N[C@@H](CCCCN)C(=O)N[C@@H](CC(C)C)C(=O)N[C@@H](CCCNC(=N)N)C(=O)N[C@@H](CO)C(=O)N[C@@H](CCSC)C(=O)N[C@H](C(=O)N[C@@H](CC(=O)O)C(N)=O)[C@@H](C)O)C(C)C [Compound 35] (Palmitoyl-VMGYQKKLRSMTD-NH2) | – | – | – | 31.7% | 49.3% | 57.9% | 57%
CCCCCCCCCCCCCCCC(=O)N[C@@H](CCCCN)C(=O)N[C@@H](CCCCN)C(=O)N[C@@H](CC(C)C)C(=O)N[C@@H](CCCNC(=N)N)C(=O)N[C@@H](CO)C(=O)N[C@@H](CCSC)C(=O)N[C@H](C(=O)N[C@@H](CC(=O)O)C(=O)N[C@@H](CCCCN)C(=O)N[C@@H](Cc1ccc(O)cc1)C(N)=O)[C@@H](C)O [Compound 46] (Palmitoyl-KKLRSMTDKY-NH2) | – | – | – | 87.2% | 82.9% | 69.7% | 116%
CCCCCCCCCCCCCCCC(=O)N[C@@H](CCSC)C(=O)NCC(=O)N[C@@H](Cc1ccc(O)cc1)C(=O)N[C@@H](CCC(N)=O)C(=O)N[C@@H](CCCCN)C(=O)N[C@@H](CCCCN)C(=O)N[C@@H](CC(C)C)C(=O)N[C@@H](CCCNC(=N)N)C(=O)N[C@@H](CO)C(=O)N[C@@H](CCSC)C(=O)N[C@H](C(=O)N[C@@H](CC(=O)O)C(=O)N[C@@H](CCCCN)C(=O)N[C@@H](Cc1ccc(O)cc1)C(=O)N[C@@H](CCCNC(=N)N)C(=O)N[C@@H](CC(C)C)C(N)=O)[C@@H](C)O [Compound 38, Pal-MGYQKKLRSMTDKYRL-amide] (Palmitoyl-MGYQKKLRSMTDKYRL-NH2) | – | – | – | 32.4% | 49.6% | – | –
CCCCCCCCCCCCCCCC(=O)N[C@@H](CCCCN)C(=O)N[C@@H](CCCCN)C(=O)N[C@@H](CC(C)C)C(=O)N[C@@H](CCCNC(=N)N)C(=O)N[C@@H](CO)C(=O)N[C@@H](CCSC)C(=O)N[C@H](C(=O)N[C@@H](CC(=O)O)C(=O)N[C@@H](CCCCN)C(=O)N[C@@H](Cc1ccc(O)cc1)C(=O)N[C@@H](CCCNC(=N)N)C(=O)N[C@@H](CC(C)C)C(=O)N[C@@H](Cc1cnc[nH]1)C(=O)N[C@@H](CC(C)C)C(=O)N[C@@H](CO)C(=O)N[C@H](C(N)=O)C(C)C)[C@@H](C)O [Compound 41] (Palmitoyl-KKLRSMTDKYRLHLSV-NH2) | – | – | – | 51.7% | 41.7% | 66.7% | 76.8%
80 (Palmitoyl-HATNSQRPRKLLA-NH2; not fully specified) [Compound 80] | 102.2 % of vehicle | 69.02 % of vehicle | 5 nM | – | – | – | –
74 (DRYLAIVHATNSQRPRKLL) [Compound 74] | 90.39 % of vehicle and 77.13 % of vehicle | 91.29 % of vehicle and 75.81 % of vehicle | 5 nM | – | – | – | –
CCCCCCCCCCCCCCCC(=O)N[C@@H](CCSC)C(=O)NCC(=O)N[C@@H](Cc1ccc(O)cc1)C(=O)N[C@@H](CCC(N)=O)C(=O)N[C@@H](CCCCN)C(=O)N[C@@H](CCCCN)C(=O)N[C@@H](CC(C)C)C(=O)N[C@@H](CCCNC(=N)N)C(=O)N[C@@H](CO)C(=O)N[C@@H](CCSC)C(=O)N[C@H](C(=O)N[C@@H](CC(=O)O)C(=O)N[C@@H](CCCCN)C(=O)N[C@@H](Cc1ccc(O)cc1)C(N)=O)[C@@H](C)O [Compound 37] (Palmitoyl-MGYQKKLRSMTDKY-NH2) | – | – | – | 63.5% | 91.1% | 92.3% | 97.8%
81 (Palmitoyl-HATNSQRPRKLLAE-NH2; not fully specified) [Compound 81] | 79.85 % of vehicle | 76.46 % of vehicle | 5 nM | – | – | – | –
82 (Palmitoyl-HATNSQRPRKLLAEK-NH2; not fully specified) [Compound 82] | 124.56 % of vehicle | 126.31 % of vehicle | 1 nM | – | – | – | –
CCCCCCCCCCCCCCCC(=O)N[C@@H](Cc1ccc(O)cc1)C(=O)N[C@@H](CCC(N)=O)C(=O)N[C@@H](CCCCN)C(=O)N[C@@H](CCCCN)C(=O)N[C@@H](CC(C)C)C(=O)N[C@@H](CCCNC(=N)N)C(=O)N[C@@H](CO)C(=O)N[C@@H](CCSC)C(=O)N[C@H](C(=O)N[C@@H](CC(=O)O)C(=O)N[C@@H](CCCCN)C(=O)N[C@@H](Cc1ccc(O)cc1)C(=O)N[C@@H](CCCNC(=N)N)C(=O)N[C@@H](CC(C)C)C(=O)N[C@@H](Cc1cnc[nH]1)C(=O)N[C@@H](CC(C)C)C(=O)N[C@@H](CO)C(=O)N[C@H](C(N)=O)C(C)C)[C@@H](C)O [Compound 40] (Palmitoyl-YQKKLRSMTDKYRLHLSV-NH2) | – | – | – | 71.9% | 71.2% | – | –
CCCCCCCCCCCCCCCC(=O)N[C@@H](CCCCN)C(=O)N[C@@H](CCCCN)C(=O)N[C@@H](CC(C)C)C(=O)N[C@@H](CCCNC(=N)N)C(=O)N[C@@H](CO)C(=O)N[C@@H](CCSC)C(=O)N[C@H](C(=O)N[C@@H](CC(=O)O)C(=O)N[C@@H](CCCCN)C(=O)N[C@@H](Cc1ccc(O)cc1)C(=O)N[C@@H](CCCNC(=N)N)C(=O)N[C@@H](CC(C)C)C(=O)N[C@@H](Cc1cnc[nH]1)C(=O)N[C@@H](CC(C)C)C(N)=O)[C@@H](C)O [Compound 42] (Palmitoyl-KKLRSMTDKYRLHL-NH2) | – | – | – | 43.8% | 33.5% | – | –
